# Data: patent publication US6440459B1, “Paroxetine maleate polymorph and pharmaceutical compositions containing it” (Medichem, S.A., priority 1998, dated 2002)
# Test: Accelerated stability tests (storage at 40° C. and 75% Relative Humidity, HPLC analysis)
# Assay type: physicochemical
# Conditions: for Degradation in accelerated stability tests: high temperature and humidity conditions, periods of up to six months (summary statement); for Stability (degradation by HPLC) at the end of one month of storage / Stability (degradation by HPLC) at the end of six months of storage: solid in two-ply polythene bags, 40° C., 75% Relative Humidity, HPLC vs time of packaging
# Experimental: Accelerated Stability Tests Samples of paroxetine maleate Form A and Form B were packaged in two-ply polythene bags and stored at 40° C. and 75% Relative Humidity. The samples were analyzed at the time of packaging by HPLC and were analyzed with the same technique at the end of one month and six months of storage.
SMILES,Degradation in accelerated stability tests,Stability (degradation by HPLC) at the end of one month of storage,Stability (degradation by HPLC) at the end of six months of storage
"Fc1ccc([C@@H]2CCNC[C@H]2COc2ccc3c(c2)OCO3)cc1.O=C(O)/C=C\C(=O)O [Form A, (3S-trans)-3-[(1,3-benzodioxol-5-yloxy)methyl]-4-(4-fluorophenyl)piperidine acid maleate]",notable degradation,clear signs of degradation,high degree of degradation
"Fc1ccc([C@@H]2CCNC[C@H]2COc2ccc3c(c2)OCO3)cc1.O=C(O)/C=C\C(=O)O [Form B, (3S-trans)-3-[(1,3-benzodioxol-5-yloxy)methyl]-4-(4-fluorophenyl)piperidine acid maleate]",absence of significant degradation,substantially unaltered,substantially unaltered
